Source: patent US11685746B2, “Heteroaryl compounds for treating Huntington's disease” (PTC THERAPEUTICS, INC., priority 2018, dated 2023)

These molecules were tested on Endogenous Huntingtin Protein (assay: Endogenous Huntingtin Protein Assay (MSD plates, MW1 or MAB2166 capture antibody)). Details: Table 1.
Type: cell-based
Procedure, shortened: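 Sandwich MSD immunoassay: plates were coated overnight at 4° C with MW1 (expanded polyQ) or MAB2166 capture antibody at 1 μg/mL, then blocked with 5% BSA. Samples were bound overnight at 4° C, followed by rabbit mAb #5656S and SULFO-TAG anti-rabbit detection, each at 0.25 μg/mL for 1 h at room temperature. Signal was read by electrochemiluminescence.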

SMILES | IC50
C[C@@H]1C[C@@H](N(C)c2nc3sc(-c4ncc(-c5cn[nH]c5)c5cc[nH]c45)nc3s2)CCN1 [Compound 85, N-methyl-N-[(2R,4S)-2-methylpiperidin-4-yl]-5-[4-(1H-pyrazol-4-yl)-1H-pyrrolo[2,3-c]pyridin-7-yl][1,3]thiazolo[5,4-d][1,3]thiazol-2-amine] | ≤ 100 nM
CN(c1nc2sc(-c3ccc(-c4cn[nH]c4)nn3)nc2s1)C1CC(C)(C)NC(C)(C)C1 [Compound 167, N-methyl-5-[6-(1H-pyrazol-4-yl)pyridazin-3-yl]-N-(2,2,6,6-tetramethylpiperidin-4-yl)[1,3]thiazolo[5,4-d][1,3]thiazol-2-amine] | 100 to 500 nM
CC1CC(N(C)c2nc3sc(-c4ccc(-c5cn[nH]c5)cn4)nc3s2)CCN1C (stereo not shown) [Compound 126, N-(1,2-dimethylpiperidin-4-yl)-N-methyl-5-[5-(1H-pyrazol-4-yl)pyridin-2-yl][1,3]thiazolo[5,4-d][1,3]thiazol-2-amine] | 100 to 500 nM
CC1(C)CC(Oc2nc3sc(-n4ccc(-c5cn[nH]c5)cc4=O)nc3s2)CC(C)(C)N1 [Compound 156, 4-(1H-pyrazol-4-yl)-1-{5-[(2,2,6,6-tetramethylpiperidin-4-yl)oxy][1,3]thiazolo[5,4-d][1,3]thiazol-2-yl}pyridin-2(1H)-one] | ≤ 100 nM
Cn1cc2cc(-c3nn4cc(C5CCNCC5)nc4s3)cc(C#N)c2n1 [Compound 27, 2-methyl-5-[6-(piperidin-4-yl)imidazo[2,1-b][1,3,4]thiadiazol-2-yl]-2H-indazole-7-carbonitrile] | ≤ 100 nM
CC1CC(N(C)c2nc3sc(-c4ccc(-c5cn[nH]c5)c5cc[nH]c45)nc3s2)CCN1C (stereo not shown) [Compound 125, N-(1,2-dimethylpiperidin-4-yl)-N-methyl-5-[4-(1H-pyrazol-4-yl)-1H-indol-7-yl][1,3]thiazolo[5,4-d][1,3]thiazol-2-amine] | ≤ 100 nM
CN(c1nc2sc(-c3ncc(-c4cn[nH]c4)cc3O)nc2s1)[C@@H]1CCNC1 [Compound 56, 2-(5-{methyl[(3R)-pyrrolidin-3-yl]amino}[1,3]thiazolo[5,4-d][1,3]thiazol-2-yl)-5-(1H-pyrazol-4-yl)pyridin-3-ol] | ≤ 100 nM
C[C@H]1C[C@@H](N(C)c2nc3sc(-c4ncc(-c5cnn(C)c5)c5cc[nH]c45)nc3s2)CCN1 [Compound 95, N-methyl-N-[(2S,4S)-2-methylpiperidin-4-yl]-5-[4-(1-methyl-1H-pyrazol-4-yl)-1H-pyrrolo[2,3-c]pyridin-7-yl][1,3]thiazolo[5,4-d][1,3]thiazol-2-amine] | ≤ 100 nM
CN(c1nc2sc(-c3ccc(-c4cn[nH]c4)cn3)nc2s1)C1CC(C)(C)NC(C)(C)C1 [Compound 133, N-methyl-5-[5-(1H-pyrazol-4-yl)pyridin-2-yl]-N-(2,2,6,6-tetramethylpiperidin-4-yl)[1,3]thiazolo[5,4-d][1,3]thiazol-2-amine] | ≤ 100 nM
CN(c1nc2sc(-c3cnc(-c4cnn(C)c4)cn3)nc2s1)[C@H]1C[C@]2(C)CC[C@](C)(C1)N2 [Compound 89, N-[(1R,3s,5S)-1,5-dimethyl-8-azabicyclo[3.2.1]octan-3-yl]-N-methyl-5-[5-(1-methyl-1H-pyrazol-4-yl)pyrazin-2-yl][1,3]thiazolo[5,4-d][1,3]thiazol-2-amine] | ≤ 100 nM
CN(c1nc2sc(-c3ncc(Br)cc3O)nc2s1)C1CCNCC1 [Compound 57, 5-bromo-2-{5-[methyl(piperidin-4-yl)amino][1,3]thiazolo[5,4-d][1,3]thiazol-2-yl}pyridin-3-ol] | 1000 to 3000 nM
CN(c1nc2sc(-c3ncc(-n4cncn4)cc3O)nc2s1)C1CCNCC1 [Compound 212, 2-{5-[methyl(piperidin-4-yl)amino][1,3]thiazolo[5,4-d][1,3]thiazol-2-yl}-5-(1H-1,2,4-triazol-1-yl)pyridin-3-ol] | 100 to 500 nM
CC1CC(N(C)c2nc3sc(-n4ccc5ccc(O)nc54)nc3s2)CCN1C (stereo not shown) [Compound 157, 1-{5-[(1,2-dimethylpiperidin-4-yl)(methyl)amino][1,3]thiazolo[5,4-d][1,3]thiazol-2-yl]-1H-pyrrolo[2,3-b]pyridin-6-ol] | 100 to 500 nM
CN(c1nc2sc(-c3ncc(-n4nccn4)cc3O)nc2s1)C1CCNCC1 [Compound 214, 2-{5-[methyl(piperidin-4-yl)amino][1,3]thiazolo[5,4-d][1,3]thiazol-2-yl}-5-(2H-1,2,3-triazol-2-yl)pyridin-3-ol] | 500 to 1000 nM
CN(c1nc2sc(-c3ccc(-c4cn[nH]c4)cc3O)nc2s1)C1CCNCC1 [Compound 14, 2-{5-[methyl(piperidin-4-yl)amino][1,3]thiazolo[5,4-d][1,3]thiazol-2-yl}-5-(1H-pyrazol-4-yl)phenol] | ≤ 100 nM
CN(c1nc2sc(-c3ccc(-c4cn[nH]c4)c4cc[nH]c34)nc2s1)C1CC(C)(C)NC(C)(C)C1 [Compound 128, N-methyl-5-[4-(1H-pyrazol-4-yl)-1H-indol-7-yl]-N-(2,2,6,6-tetramethylpiperidin-4-yl)[1,3]thiazolo[5,4-d][1,3]thiazol-2-amine] | ≤ 100 nM

SMILES | IC50
CN(c1nc2sc(-n3ccc(-n4cc(F)cn4)cc3=O)nc2s1)[C@@H]1C[C@H]2CC[C@@H](C1)N2 [Compound 149, 1-(5-{[(1R,3s,5S)-8-azabicyclo[3.2.1]octan-3-yl](methyl)amino}[1,3]thiazolo[5,4-d][1,3]thiazol-2-yl)-4-(4-fluoro-1H-pyrazol-1-yl)pyridin-2(1H)-one] | ≤ 100 nM
Cc1nccn1-c1cnc(-c2nc3sc(N(C)[C@H]4C[C@]5(C)CC[C@](C)(C4)N5)nc3s2)cn1 [Compound 67, N-[(1R,3s,5S)-1,5-dimethyl-8-azabicyclo[3.2.1]octan-3-yl]-N-methyl-5-[5-(2-methyl-1H-imidazol-1-yl)pyrazin-2-yl][1,3]thiazolo[5,4-d][1,3]thiazol-2-amine] | ≤ 100 nM
CN(c1nc2sc(-c3ncc(-c4cn[nH]c4)cc3O)nc2s1)C1CCNCC1 [Compound 47, 2-{5-[methyl(piperidin-4-yl)amino][1,3]thiazolo[5,4-d][1,3]thiazol-2-yl}-5-(1H-pyrazol-4-yl)pyridin-3-ol] | ≤ 100 nM
C[C@H]1C[C@H](Oc2nc3sc(-c4ncc(-c5cn[nH]c5)c5cc[nH]c45)nc3s2)CCN1 [Compound 109, 7-(5-{[(2S,4R)-2-methylpiperidin-4-yl]oxy}[1,3]thiazolo[5,4-d][1,3]thiazol-2-yl)-4-(1H-pyrazol-4-yl)-1H-pyrrolo[2,3-c]pyridine] | ≤ 100 nM
CN(c1nc2sc(-n3ccc(-c4cn[nH]c4)cc3=O)nc2s1)C1CCNCC1 [Compound 188, 1-{5-[methyl(piperidin-4-yl)amino][1,3]thiazolo[5,4-d][1,3]thiazol-2-yl}-4-(1H-pyrazol-4-yl)pyridin-2(1H)-one] | ≤ 100 nM
CN(c1nc2sc(-c3ncc(-c4cn[nH]c4)c4ccn(C)c34)nc2s1)C1CCNCC1 [Compound 113, N-methyl-5-[1-methyl-4-(1H-pyrazol-4-yl)-1H-pyrrolo[2,3-c]pyridin-7-yl]-N-(piperidin-4-yl)[1,3]thiazolo[5,4-d][1,3]thiazol-2-amine] | 100 to 500 nM
CN(c1nc2sc(-c3ccc(-c4cn[nH]c4)cn3)nc2s1)[C@@H]1C[C@H]2CC[C@@H](C1)N2 [Compound 174, N-[(1R,3s,5S)-8-azabicyclo[3.2.1]octan-3-yl]-N-methyl-5-[5-(1H-pyrazol-4-yl)pyridin-2-yl][1,3]thiazolo[5,4-d][1,3]thiazol-2-amine] | ≤ 100 nM
CN(c1nc2sc(-c3cc(F)c(-c4cn[nH]c4)cc3F)nc2s1)C1CC(C)(C)NC(C)(C)C1 [Compound 4, 5-[2,5-difluoro-4-(1H-pyrazol-4-yl)phenyl]-N-methyl-N-(2,2,6,6-tetramethylpiperidin-4-yl)[1,3]thiazolo[5,4-d][1,3]thiazol-2-amine] | ≤ 100 nM
CN(c1nc2sc(-c3ncc(-n4ccnn4)cc3O)nc2s1)C1CCNCC1 [Compound 215, 2-{5-[methyl(piperidin-4-yl)amino][1,3]thiazolo[5,4-d][1,3]thiazol-2-yl}-5-(1H-1,2,3-triazol-1-yl)pyridin-3-ol] | 100 to 500 nM
CN(c1nc2sc(-c3ccc(-c4cn[nH]c4)c4cc[nH]c34)nc2s1)[C@@H]1C[C@H]2CC[C@@H](C1)N2 [Compound 183, N-[(1R,3s,5S)-8-azabicyclo[3.2.1]octan-3-yl]-N-methyl-5-[4-(1H-pyrazol-4-yl)-1H-indol-7-yl][1,3]thiazolo[5,4-d][1,3]thiazol-2-amine] | ≤ 100 nM
CN(c1nc2sc(-c3ccc(-c4cnn(C)c4)cc3O)nc2s1)C1CCNCC1 [Compound 40, 2-{5-[methyl(piperidin-4-yl)amino][1,3]thiazolo[5,4-d][1,3]thiazol-2-yl}-5-(1-methyl-1H-pyrazol-4-yl)phenol] | ≤ 100 nM
C[C@@H]1C[C@@H](Oc2nc3sc(-c4ncc(-c5cn[nH]c5)c5nc[nH]c45)nc3s2)CCN1 [Compound 83, 4-(5-{[(2R,4S)-2-methylpiperidin-4-yl]oxy}[1,3]thiazolo[5,4-d][1,3]thiazol-2-yl)-7-(1H-pyrazol-4-yl)-3H-imidazo[4,5-c]pyridine] | ≤ 100 nM
CN(c1nc2sc(-c3ncc(-c4cn[nH]c4)cc3O)nc2s1)[C@H]1CCNC1 [Compound 213, 2-(5-{methyl[(3S)-pyrrolidin-3-yl]amino}[1,3]thiazolo[5,4-d][1,3]thiazol-2-yl)-5-(1H-pyrazol-4-yl)pyridin-3-ol] | ≤ 100 nM
CN(c1nc2sc(-c3ncc(-c4cn[nH]c4)cn3)nc2s1)[C@H]1CCCNC1 [Compound 161, N-methyl-N-[(3S)-piperidin-3-yl]-5-[5-(1H-pyrazol-4-yl)pyrimidin-2-yl][1,3]thiazolo[5,4-d][1,3]thiazol-2-amine] | 100 to 500 nM
[2H]C([2H])([2H])n1cc(-c2ccc(-c3nc4sc(N(C)C5CCNCC5)nc4s3)c(O)c2)cn1 [Compound 39, 2-{5-[methyl(piperidin-4-yl)amino][1,3]thiazolo[5,4-d][1,3]thiazol-2-yl}-5-[1-(^2H3)methyl-1H-pyrazol-4-yl]phenol] | ≤ 100 nM
